Data reported in article PMC5602572, “New carboxamide derivatives bearing benzenesulphonamide as a selective COX-II inhibitor: Design, synthesis and structure-activity relationship” (PLoS ONE, 2017).
Like-named read-outs stand apart in the source and are kept apart here.

Legend:
[1] = system: carrageenan induced rat paw edema; experiment: carrageenan-induced rat paw edema bioassay; type: in vivo; conditions: % inhibition of carrageenan induced rat paw edema, intraperitoneal; for Anti-inflammatory activity, 0.5 h (%): 0.5 h after treatment; for Anti-inflammatory activity, 1 h (%): 1 h after treatment; for Anti-inflammatory activity, 2 h (%): 2 h after treatment; for Anti-inflammatory activity, 3 h (%): 3 h after treatment
Method: Male albino rats weighing 300 g where purchased from the Department of Zoology and Environmental Biology, University of Nigeria, Nsukka and kept at room temperature in a light controlled animal house. They were fasted with free access to water at least 12 h prior to the experiments. […] The positive control received celecoxib while the negative control received only the vehicle. Edema was produced by injecting 0.2 mL of a solution of 1% carrageenan in the hind paw. The rats were injected intraperitoneally with 1 mL suspension in 0.5% methylcellulose of the tested compounds and reference drug. Paw volume was measured by water displacement with a plethysmometer (UGO BASILE) before, 30 min, 1 h, 2 h and 3 h after treatment. The percentage was calculated by the following equation [25].
Anti-inflammatory activity (%) = (1-D/C)[…], where D represents the difference in paw volume before and after drug administration to the rats and C represents the difference of volume in the control groups. The approval for the use of animal was obtained from the University of Nigeria committee on experimental animal use. No sign of death was observed during the experiment.

COX-2 = molecular target: T1, COX-2 (Ovis aries, UniProt P79208); experiment: In vitro cyclooxygenase inhibitory assay (Cayman colorimetric COX (ovine) inhibitor screening kit), COX-2; type: biochemical; conditions: for inhibition at 2 µM: read-out: COX-2 (%) inhibition; for selectivity for COX-2 (in words): from COX-2/COX-1 % inhibition at 2.0 μM; for S I (selectivity COX-2/COX-1): ratio of % inhibition COX-2/COX-1 at 2.0 μM
T1 construct: purchased Cayman chemicals, USA
T1 sequence (P79208 17-603): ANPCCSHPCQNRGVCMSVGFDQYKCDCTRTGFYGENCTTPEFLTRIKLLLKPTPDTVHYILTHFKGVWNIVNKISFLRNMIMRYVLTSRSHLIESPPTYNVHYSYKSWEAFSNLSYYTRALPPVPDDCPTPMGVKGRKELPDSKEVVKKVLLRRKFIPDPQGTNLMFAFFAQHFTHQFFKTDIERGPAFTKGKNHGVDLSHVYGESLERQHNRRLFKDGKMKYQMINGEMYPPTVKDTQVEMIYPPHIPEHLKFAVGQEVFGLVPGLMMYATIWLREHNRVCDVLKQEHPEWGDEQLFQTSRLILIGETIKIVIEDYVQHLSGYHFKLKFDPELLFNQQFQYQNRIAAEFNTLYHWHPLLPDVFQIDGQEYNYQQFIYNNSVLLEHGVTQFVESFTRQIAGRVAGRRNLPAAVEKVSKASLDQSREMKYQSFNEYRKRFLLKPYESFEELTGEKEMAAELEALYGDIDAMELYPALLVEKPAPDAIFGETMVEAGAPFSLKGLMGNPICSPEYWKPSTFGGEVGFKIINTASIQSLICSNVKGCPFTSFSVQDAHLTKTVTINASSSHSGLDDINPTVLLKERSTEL
Method: (§1) The calculations were performed as per the kit guidelines.

COX-1 = molecular target: T2, COX-1 (Ovis aries, UniProt P05979); experiment: In vitro cyclooxygenase inhibitory assay (Cayman colorimetric COX (ovine) inhibitor screening kit), COX-1; type: biochemical; conditions: read-out: COX-1 (%) inhibition
T2 construct: purchased Cayman chemicals, USA
T2 sequence (P05979 25-600): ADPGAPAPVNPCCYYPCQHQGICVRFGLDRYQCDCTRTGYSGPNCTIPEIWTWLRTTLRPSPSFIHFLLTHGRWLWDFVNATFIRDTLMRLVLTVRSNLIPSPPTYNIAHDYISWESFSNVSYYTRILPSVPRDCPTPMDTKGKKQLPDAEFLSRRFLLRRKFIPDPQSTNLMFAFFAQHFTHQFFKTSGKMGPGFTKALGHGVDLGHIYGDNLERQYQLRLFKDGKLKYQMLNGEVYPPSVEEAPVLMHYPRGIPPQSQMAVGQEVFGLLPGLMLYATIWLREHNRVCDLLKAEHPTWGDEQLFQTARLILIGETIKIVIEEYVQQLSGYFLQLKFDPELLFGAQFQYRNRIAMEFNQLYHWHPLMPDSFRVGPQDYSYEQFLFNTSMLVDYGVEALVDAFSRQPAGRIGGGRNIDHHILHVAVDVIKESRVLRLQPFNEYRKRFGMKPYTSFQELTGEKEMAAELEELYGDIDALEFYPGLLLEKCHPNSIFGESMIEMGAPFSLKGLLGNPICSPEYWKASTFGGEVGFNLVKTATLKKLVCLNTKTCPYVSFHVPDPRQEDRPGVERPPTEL
Method: as §1

[2] = Determination of LD50 in mice; conditions: mouse, in vivo, ip; male mice, intraperitoneal, observation 72 h
Method: Male mice were divided into various groups and test compounds were administered in various doses intraperitoneally. […] All behavioral changes and deaths during the observation periods were recorded. The percentage of death at each dose level was then calculated, converted to probits and the LD50 (μM/kg) values were calculated. To observe the health status of the mice, they were monitored 4 times a day. […] For the purpose of ameliorating the suffering of the dying mice, CO2 euthanasia was applied. All the dead mice were disposed in bio-safety containers in accordance with local standard protocols. The mortality rate in each group was calculated according to the formula: Mortality rate(%)=(the number of dead mice/the number of mice in the group)×100.

Row | Compound | Anti-inflammatory activity, 0.5 h (%) [1] | Anti-inflammatory activity, 1 h (%) [1] | Anti-inflammatory activity, 2 h (%) [1] | Anti-inflammatory activity, 3 h (%) [1] | inhibition at 2 µM (COX-2; concentration of 2.0 μM) | selectivity for COX-2 (in words) (COX-2) | S I (selectivity COX-2/COX-1) (COX-2) | inhibition at 2 µM (COX-1; concentration of 2.0 μM) | LD50 at 72 h [2] | inhibition at 2 µM (COX-2) | inhibition at 2 µM (COX-1)
1 | Cc1ccc(S(=O)(=O)N(C(=O)c2ccccc2)[C@@H](CC(C)C)C(=O)Nc2cc(C)ccn2)cc1 [Compound 7l, (2S)-4-Methyl-2-[N-(4-methylbenzenesulfonyl)-1-phenylformamido]-N-(4-methylpyridin-2-yl) pentanamide] | 26.15% | 19.88% | 18.28% | 16.67% | 19% | non-selective | 0.95 | 20% | 12.5 µmol/kg |  | 
2 | CCC(C)[C@@H](C(=O)Nc1cc(C)ccn1)N(C(=O)c1ccccc1)S(=O)(=O)c1ccc(C)cc1 (stereo partly drawn) [Compound 7m, (2S)-3-Methyl-2-[N-(4-methylbenzenesulfonyl)-1-phenylformamido]-N-(4-methylpyridin-2-yl) pentanamide] | 13.85% | 12.35% | 8.59% | 8.58% | 25% | non-selective | 1.47 | 17% | 11.9 µmol/kg |  | 
3 | Cc1ccc(S(=O)(=O)N(C(=O)c2ccccc2)[C@H](C(=O)Nc2cc(C)ccn2)C(C)C)cc1 [Compound 7n, (2S)-3-Methyl-2-[N-(4-methylbenzenesulfonyl)-1-phenylformamido]-N-(4-methylpyridin-2-yl) butanamide] | 21.54% | 16.47% | 10.56% | 3.09% | 48% | non-selective | 1.50 | 32% | 20.1 µmol/kg |  | 
4 | Cc1ccc(S(=O)(=O)N2CC(O)C[C@H]2C(=O)Nc2cc(C)ccn2)cc1 (stereo partly drawn) [Compound 7o, (2S)-4-Hydroxy-1-(4-methylbenzenesulfonyl)-N-(4-methylpyridin-2-yl)pyrrolidine-2-carboxamide] | 21.54% | 11.23% | 8.78% | 5.56% |  |  |  |  | 10.1 µmol/kg | 18% | 6%
5 | Cc1ccc(S(=O)(=O)N2CCC[C@H]2C(=O)Nc2cc(C)ccn2)cc1 [Compound 7p, (2S)-1-(4-Methylbenzenesulfonyl)-N-(4-methylpyridin-2-yl)pyrrolidine-2-carboxamide] | 29.15% | 28.24% | 30.34% | 33.26% |  |  |  |  | 9.9 µmol/kg | 20% | 8%
